Measured values as given in US9067949B2, “Benzofuro[3,2-c] pyridines and related analogs as serotonin sub-type 6 (5-HT6) modulators for the treatment of obesity, metabolic syndrome, cognition and schizophrenia” (Albany Molecular Research, Inc., priority 2011, dated 2015).

These compounds were tested against human 5-HT6 receptor (Homo sapiens (Human), UniProt P50406) (assay: 5-HT6 radioligand binding assay (SPA format, [N-methyl-3H]-LSD)). Conditions: human 5-HT6 receptor membranes, 10 nM [N-methyl-3H]-LSD; Ki by Cheng-Prusoff; read-out: human 5HT6 Ki.
Sequence of human 5-HT6 receptor (P50406 whole entry): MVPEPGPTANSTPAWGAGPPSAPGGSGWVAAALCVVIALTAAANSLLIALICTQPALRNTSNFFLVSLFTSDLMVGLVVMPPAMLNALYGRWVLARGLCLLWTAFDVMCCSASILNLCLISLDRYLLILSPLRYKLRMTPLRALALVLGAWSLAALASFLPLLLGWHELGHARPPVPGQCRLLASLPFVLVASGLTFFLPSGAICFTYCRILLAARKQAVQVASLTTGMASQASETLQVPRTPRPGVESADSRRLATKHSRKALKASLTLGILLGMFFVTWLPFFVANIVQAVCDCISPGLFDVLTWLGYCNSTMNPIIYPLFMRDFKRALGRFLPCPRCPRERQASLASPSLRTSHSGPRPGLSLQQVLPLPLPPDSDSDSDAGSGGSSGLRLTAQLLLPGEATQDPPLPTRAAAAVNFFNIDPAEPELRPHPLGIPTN
Description: The relative affinities of the various compounds for the 5-HT6 receptor were measured in a radioligand binding assay, using a scintillation proximity assay (SPA) format.
For binding analysis vs. the human receptor, samples were incubated in 50 mM Tris-HCl, pH 7.5, 5 mM MgCl2, 1 mM EDTA (4% DMSO final) with 10 nM [N-methyl-^3H]-LSD (Perkin Elmer), 2.5 ng of human 5-HT6 receptor membranes (Millipore) and 50 μg SPA beads (PVT-PEI-WGA, GE Healthcare) per well in a final volume of 0.2 mL. […] Binding reactions were performed in PicoPlate96 microtiter plates (Perkin Elmer) by consecutively adding 50 μL of each competing compound or buffer, SPA beads, radioligand and 5-HT6 receptor membranes. After an overnight incubation at room temperature on a Nutator mixer, plates were centrifuged for 15 min at 1,500 rpm, followed by incubation in the dark for 10 min. […] Total binding control contained compound dilution buffer only; nonspecific binding is determined in the presence of 100 μM 5-hydroxytryptamine. Specific binding was determined by subtracting nonspecific binding from total binding.
All experiments were performed in duplicate using ten concentrations of competing ligand, with clozapine included as a control in every run. IC50 values were determined from specific binding data using XLfit4.1 curve fitting software from IDBS Ltd. The inhibition constant (Ki) was calculated using the Cheng-Prusoff equation: (Ki=IC50/(1+(L/KD)), where L=concentration of radioligand in the assay, and KD=affinity of the radioligand for the receptor.

Structure (SMILES)	Ki [nM]
O=S(=O)(c1ccc(C(O)C(F)(F)F)cc1)c1cc(Cl)c2oc3c(c2c1)CNCC3 (stereo not shown) [Example 131]	7.6
O=S(=O)(c1cccc(C(O)C(F)(F)F)c1)c1cc(Cl)c2oc3c(c2c1)CNCC3 (stereo not shown) [Example 132]	3.3
O=S(=O)(c1cc(Cl)c2oc3c(c2c1)CNCC3)c1csc2ccccc12 [Example 133]	0.26
O=S(=O)(c1ccc2sccc2c1)c1cc(Cl)c2oc3c(c2c1)CNCC3 [Example 134]	0.55
CC(O)c1ccccc1S(=O)(=O)c1cc(Cl)c2oc3c(c2c1)CNCC3 (stereo not shown) [Example 135]	20
CC(O)c1cccc(S(=O)(=O)c2cc(Cl)c3oc4c(c3c2)CNCC4)c1 (stereo not shown) [Example 136]	3
CC(O)c1ccc(S(=O)(=O)c2cc(Cl)c3oc4c(c3c2)CNCC4)cc1 (stereo not shown) [Example 137]	5.6
C[C@H](O)c1cccc(S(=O)(=O)c2cc(Cl)c3oc4c(c3c2)CNCC4)c1 [Example 138]	5.1
C[C@@H](O)c1cccc(S(=O)(=O)c2cc(Cl)c3oc4c(c3c2)CNCC4)c1 [Example 139]	2.7
C[C@H](O)c1ccc(S(=O)(=O)c2cc(Cl)c3oc4c(c3c2)CNCC4)cc1 [Example 140]	16
C[C@@H](O)c1ccc(S(=O)(=O)c2cc(Cl)c3oc4c(c3c2)CNCC4)cc1 [Example 141]	3.1
CC(C)(O)c1ccccc1S(=O)(=O)c1cc(Cl)c2oc3c(c2c1)CNCC3 [Example 142]	25
O=S(=O)(c1ccc2[nH]ccc2c1)c1cc(Cl)c2oc3c(c2c1)CNCC3 [Example 143]	0.13
CS(=O)(=O)N1CCc2oc3c(Cl)cc(S(=O)(=O)c4ccccc4)cc3c2C1 [Example 144]	492
CN(C)CC(=O)N1CCc2oc3c(Cl)cc(S(=O)(=O)c4ccccc4)cc3c2C1 [Example 145]	66
O=S(=O)(c1ccccc1)c1cc(Cl)c2oc3c(c2c1)CN(CCO)CC3 [Example 146]	1.6
CC(C)(O)CN1CCc2oc3c(Cl)cc(S(=O)(=O)c4ccccc4)cc3c2C1 [Example 147]	1.2

Structure (SMILES)	Ki [nM]
CN(C)C(=O)CN1CCc2oc3c(Cl)cc(S(=O)(=O)c4ccccc4)cc3c2C1 [Example 148]	45
COCCN1CCc2oc3c(Cl)cc(S(=O)(=O)c4ccccc4)cc3c2C1 [Example 149]	1.6
O=S(=O)(c1ccccc1)c1cc(Cl)c2oc3c(c2c1)CN(C1COC1)CC3 [Example 150]	76
CC(O)CN1CCc2oc3c(Cl)cc(S(=O)(=O)c4ccccc4)cc3c2C1 (stereo not shown) [Example 151]	1.7
CC(CO)N1CCc2oc3c(Cl)cc(S(=O)(=O)c4ccccc4)cc3c2C1 (stereo not shown) [Example 152]	3.4
O=S(=O)(c1cc(Cl)c2oc3c(c2c1)CNCC3)c1ccccc1C(F)(F)F [Example 153]	6.1
O=S(=O)(c1ccc(C2CCOC2)cc1)c1cc(Cl)c2oc3c(c2c1)CNCC3 (stereo not shown) [Example 154]	5.6
CC(=O)N1CCc2oc3c(Cl)cc(S(=O)(=O)c4cn(C)c5ccccc45)cc3c2C1 [Example 155]	167
O=S(=O)(c1ccc2c(c1)COC2)c1cc(Cl)c2oc3c(c2c1)CNCC3 [Example 156]	7.6
C=C(C)c1cccc(S(=O)(=O)c2cc(Cl)c3oc4c(c3c2)CNCC4)c1 [Example 157]	0.66
COc1cc(S(=O)(=O)c2ccc3c(c2)CCOC3)cc2c3c(oc12)CCNC3 [Example 158]	0.48
COc1cc(S(=O)(=O)c2ccccc2CO)cc2c3c(oc12)CCNC3 [Example 159]	1.5
COc1cc(S(=O)(=O)c2cccc(OC(F)F)c2)cc2c3c(oc12)CCNC3 [Example 160]	0.11
COc1cc(S(=O)(=O)c2ccc(F)c(F)c2)cc2c3c(oc12)CCNC3 [Example 161]	0.32
COc1cc(S(=O)(=O)c2ccc(C(F)(F)F)cc2)cc2c3c(oc12)CCNC3 [Example 162]	0.49
COc1cc(S(=O)(=O)c2ccccc2F)cc2c3c(oc12)CCNC3 [Example 163]	0.19
COc1cc(S(=O)(=O)c2ccc(OC(F)F)cc2)cc2c3c(oc12)CCNC3 [Example 164]	0.4
